Here are results for 14 molecules from patent US11001605B2, “Cyclic dinucleotides containing benzimidazole, method for the production of same, and use of same to activate stimulator of interferon genes (sting)-dependent signaling pathways” (BIOLOG LIFE SCIENCE INSTITUTE GmbH & Co. KG, priority 2016, dated 2021).

Series [1] can be described thus: Lipophilicity determination by gradient HPLC (log k′g). Type of series: physicochemical. The following applies: HPLC gradient 1, RP-18, triethylammonium phosphate buffer pH 6.5 / methanol (ion pair chromatography). How it is done: Gradient 1: Stationary phase: Polygosil 60-10, RP-18; 250×4 mm (Macherey & Nagel, DOren, Germany). Mobile phase A: 10 ml 1 M triethylammonium phosphate buffer (TEAP), pH 6.5+990 ml methanol. Mobile phase B: 10 ml 1 M TEAP, pH 6.5+990 ml H2O. Time program: 0 min: 100% B; 60 min: 100% A; 65 min: 100% A; 70 min: 100% B; 90 min: 100% B. Flow rate: 1.0 ml/min.
The octanol/water coefficient Log P is the commonly accepted indicator for the expected property of a given chemical entity to pass cellular membranes by passive diffusion. However, its practical determination for polar compounds such as multiply charged nucleotides is difficult in reality. Often, the information about membrane permeability must be received by fragmental analysis or other calculations.
Given this fact, an established HPLC method is used here, which is based on the measurement of retention on a reversed phase column^7. In contrast to Log P, this method yields the indicator log k′g, which allows for a ranking of different nucleotides of the same charge according to their lipophilicity.
Since CDNs are twofold negatively charged molecules which are only very insufficiently retarded on a reversed phase HPLC column, the determinations were performed in presence of the lipophilic triethylammonium cation (ion pair chromatography).
According to the established method^7 HPLC gradient 1 was used for the determination of lipophilicity.

In series [2] the test system is STING signalling pathway. The experiment in a line: Interferon-β promoter SEAP reporter assay in THP1-Blue cells. The class given is cell-based, human. The following applies: 0, 10, 20, 40 μg/ml, 24 hours. The protocol: Legend for Synthesis 4: THP1-Blue™ cells ((THP1-ISG); InvivoGen, catalogue number: thp-isg; concentration: 5×10^5/ml, 180 μl/well (96-well-plate) were incubated with inventive CDNs in different concentrations (0 μg/ml; 10 μg/ml; 20 μg/ml; 40 μg/ml) in medium (RPMI-1640, 2 mM L-glutamine, 1.5 g/I sodium bicarbonate, 4.5 g/I glucose, 10 mM HEPES, 1 mM sodium pyruvate, 10% FCS, 100 μg/ml Zeocin™, 110 μg/ml Normocin™, Pen-Strep 50 U/ml) for 24 hours at 37° C. in 5% CO2. The quantification was performed with SEAP detection reagent QUANTI-Blue™ (InvivoGen; catalogue number: rep-qb1; incubation time: 30 min at 37° C. in 5% CO2) by optical density (OD) determination at 625 nm.
Legend for Synthesis 5: THP1-Blue™ cells ((THP1-ISG); InvivoGen, catalogue number: thp-isg; concentration: 5×10^5/ml, 180 μl/well (96-well-plate) and THP1 Dual™ KO STING cells ((STING KO) InvivoGen, catalogue number: thpd-kostg; concentration: 5×10^5/ml, 180 μl/well (96-well-plate) were incubated with inventive CDNs (concentration 40 μg/ml each) in medium (RPMI-1640, 2 mM L-glutamine, 1.5 g/I sodium bicarbonate, 4.5 g/I glucose, 10 mM HEPES, 1 mM sodium pyruvate, 10% FCS, 100 μg/mL Zeocin™, 110 μg/mL Normocin™, Pen-Strep 50 U/mL) for 24 hours at 37° C. in 5% CO2. For incubations with THP1 Dual™ KO STING cells, 10 μg/ml of blasticidin were added to the medium. Quantification was performed with SEAP detection reagent QUANTI-Blue™ (InvivoGen; catalogue number: rep-qb1; incubation time: 15 min at 37° C. in 5% CO2) by optical density (OD) determination at 625 nm.
Cell line: THP1-Blue™ cells (InvivoGen, catalogue number: thp-isg) are derived from THP1 cells. THP1-Blue™ cells in a cell culture dish are stimulated by the administration of a CDN according to the invention or a buffer control.
In these genetically modified cells, the gene for secreted embryonic alkaline phosphatase (SEAP) is under the control of an interferon-β promoter.
After stimulation of the cells with an inventive CDN, the supernatant of the cell culture was removed and the enzymatic activity of SEAP was measured photometrically in a colorimetric assay by measuring the extinction at 625 nm (optical density; OD 625 nm).
Administration of an inventive CDN induces an increase in the activity of SEAP, which is a measure of the activity of the STING signalling pathway.
Background: Reporter assays use an easily measured gene product as a stand-in for the process of interest.

For series [3], the system named is STING-induced dimerisation and phosphorylation of IRF3, STING-induced phosphorylation of TBK1. The experiment in a line: STING-induced dimerisation and phosphorylation of IRF3 and phosphorylation of TBK1, Western Blot of THP-1 cell lysate. The class given is cell-based, human. The following applies: THP-1 cells, native gel and SDS-PAGE Western Blot, versus buffer control. How it is done: Cell line: THP-1 cells (Sigma Cat. No. 88081201-1VL) were isolated from peripheral blood of a patient with acute leukaemia.
After application of an inventive CDN or a buffer control to THP1 cells in a culture dish a cell lysate is prepared, of which one part is applied to a native polyacrylamide gel and the other part to two denaturing polyacrylamide gels (SDS-PAGE). The developed gels are analysed with Western Blot technique.
In case of the native gel an IRF3 antibody is used.
The presence of an inventive CDN results in the formation of a second band, showing a running behaviour, which corresponds to the doubled molecular weight of IRF3. This band represents the dimer of IRF3, that has been formed under the influence of an inventive CDN.
In case of the two denaturing gels, either an antibody against phosphorylated IRF3 or an antibody against phosphorylated TBK1 is used. In the buffer control for each of the gels only a very weak band is detected. After application of an inventive CDN, the intensities of these bands are much more pronounced. This increase of intensity reflects the phosphorylation of IRF3 and of TBK1, respectively, induced by the inventive CDNs. Both, the dimerisation of IRF3 and the detected phosphorylations are a direct result of STING activation.
A general note: Immunoblotting shows a protein as a band on a membrane.

Turning to `O=P1(O)OC[C@H]2O[C@@H](n3cnc4ccccc43)C(O)C2OP(=O)(O)OC[C@H]2O[C@@H](n3cnc4ccccc43)C(O)C2O1` (stereo partly shown) [Compound 1, cyclic (benzimidazole riboside- (3′ −> 5′)-monophosphate- benzimidazole riboside-(3′ −> 5′)- monophosphate)], the “log k′g” value in series [1] worked out at 1.732.

For the molecule `Nc1ncnc2c1ncn2[C@@H]1O[C@@H]2COP(=O)(O)OC3C(O)[C@H](n4cnc5cc(Cl)c(Cl)cc54)O[C@@H]3COP(=O)(O)OC2C1F` (stereo partly shown) [Compound 81, cyclic (2′-fluoro-2′-deoxyadenosine-(3′ −> 5′)-monophosphate-5,6-dichlorobenzimidazole riboside-(3′ −> 5′)-monophosphate)], the “log k′g” value in series [1] is on record as 2.039. Also, the “SEAP activity, elevated OD at 625 nm, concentration-dependent” value in series [2] was “positive”.

On to `O=P1(O)OC[C@H]2O[C@@H](n3cnc4cc(Cl)c(Cl)cc43)C(O)C2OP(=O)(O)OC[C@H]2O[C@@H](n3cnc4cc(Cl)c(Cl)cc43)C(O)C2O1` (stereo partly shown) [Compound 7, cyclic (5,6-dichlorobenzimidazole riboside-(3′ −> 5′)-monophosphate-5,6-dichlorobenzimidazole riboside-(3′ −> 5′)-monophosphate)], for which, in series [1], the “log k′g” value was 2.970.

In the case of `Nc1nc2c(ncn2[C@@H]2O[C@@H]3COP(=O)(S)OC4C(O)[C@@H](COP(=O)(S)OC2C3O)O[C@H]4n2cnc3cc(Cl)c(Cl)cc32)c(=O)[nH]1` (stereo partly shown) [Compound 30, cyclic (guanosine-(2′ −> 5′)-monophosphorothioate-5,6-dichlorobenzimidazole riboside-(2′ −> 5′)-monophosphorothioate)], in series [3], the “STING-induced dimerisation of IRF3, phosphorylation of IRF3 and phosphorylation of TBK1” value (shortened to “STING-induced dimerisation of IRF3”) is reported as “positive”.

For `Nc1nc2c(ncn2[C@@H]2O[C@@H]3COP(=O)(S)OC4C(O)[C@H](n5cnc6cc(Cl)c(Cl)cc65)O[C@@H]4COP(=O)(S)OC2C3O)c(=O)[nH]1` (stereo partly shown) [Compound 29, cyclic (guanosine-(2′ −> 5′)-monophosphorothioate-5,6-dichlorobenzimidazole riboside-(3′ −> 5′)-monophosphorothioate)], in series [3], the “STING-induced dimerisation of IRF3” value was “positive”.

With `Nc1nc2c(ncn2[C@@H]2O[C@@H]3COP(=O)(O)O[C@H]4[C@@H](O)[C@H](n5cnc6c(=O)[nH]c(N)nc65)O[C@@H]4COP(=O)(O)O[C@H]3[C@H]2O)c(=O)[nH]1` [c-diGMP, reference compound], the “log k′g” value in series [1] came out at 0.840.

For the molecule `Nc1ncnc2c1ncn2[C@@H]1O[C@@H]2COP(=O)(S)OC3C(O)[C@@H](COP(=O)(S)OC2C1O)O[C@H]3n1cnc2ccccc21` (single isomer, unassigned) [Compound 98, MI2, Cyclic (adenosine-(3′→5′)-monophosphorothioate-benzimidazole riboside-(2′→5′)-monophosphorothioate)], the “log k′g” value in series [1] (listed as 98, MI2) came to 1.584.

`O=P1(S)OC[C@H]2O[C@@H](n3cnc4cc(Cl)c(Cl)cc43)C(O)C2OP(=O)(S)OC[C@H]2O[C@@H](n3cnc4cc(Cl)c(Cl)cc43)C(O1)C2O` (stereo partly shown) [Compound 11, cyclic (5,6-dichlorobenzimidazole riboside-(2′ −> 5′)-monophosphorothioate-(5,6-dichlorobenzimidazole riboside-(3′ −> 5′)-monophosphorothioate)]: the “STING-induced dimerisation of IRF3” value in series [3] is on record as “positive”.

Turning to `Nc1nc2c(ncn2[C@@H]2O[C@@H]3COP(=O)(S)OC4C(O)[C@H](n5cnc6cc(Cl)c(Cl)cc65)O[C@@H]4COP(=O)(S)OC2C3O)c(=O)[nH]1` (single isomer, unassigned) [Compound 29, MI1, Cyclic (guanosine-(2′→5′)-monophosphorothioate-5,6-dichlorobenzimidazole riboside-(3′→5′)-monophosphorothioate)], the “log k′g” value in series [1] (listed as 29, MI1) was found to be 2.318.

In the case of `Nc1nc2c(ncn2[C@@H]2O[C@@H]3COP(=O)(S)OC4C(O)[C@H](n5cnc6ccccc65)O[C@@H]4COP(=O)(S)OC2C3O)c(=O)[nH]1` (single isomer, unassigned) [Compound 23, MI1, Cyclic (guanosine-(2′→5′)-monophosphorothioate-benzimidazole riboside-(3′→5′)-monophosphorothioate)], the “log k′g” value in series [1] (listed as 23, MI1) stood at 1.509.

With `O=P1(S)OC[C@H]2O[C@@H](n3cnc4ccccc43)C(O)C2OP(=O)(S)OC[C@H]2O[C@@H](n3cnc4ccccc43)C(O)C2O1` (stereo partly shown) [Compound 4, cyclic (benzimidazole riboside- (3′ −> 5′)-monophosphorothioate- benzimidazole riboside-(3′ −> 5′)- monophosphorothioate)], in series [3], the “STING-induced dimerisation of IRF3” value is “positive”.

In the case of `Nc1nc2c(ncn2[C@@H]2O[C@@H]3COP(=O)(S)OC4C(O)[C@H](n5cnc6ccccc65)O[C@@H]4COP(=O)(S)OC2C3O)c(=O)[nH]1` (single isomer, unassigned) [Compound 23, MI2, Cyclic (guanosine-(2′→5′)-monophosphorothioate-benzimidazole riboside-(3′→5′)-monophosphorothioate)], the “log k′g” value in series [1] (listed as 23, MI2) was 1.658. Further, the “SEAP activity, elevated OD at 625 nm, concentration-dependent” value in series [2] is “positive”.

On to `Nc1nc2c(ncn2[C@@H]2O[C@@H]3COP(=O)(O)O[C@H]4[C@@H](O)[C@H](n5cnc6c(N)ncnc65)O[C@@H]4COP(=O)(O)O[C@@H]2[C@@H]3O)c(=O)[nH]1` [2′,3′-cGAMP, reference compound], for which the “log k′g” value in series [1] came to 0.766.

As for `O=c1[nH]cnc2c1ncn2[C@@H]1O[C@@H]2COP(=O)(O)OC3C(O)[C@H](n4cnc5ccccc54)O[C@@H]3COP(=O)(O)OC2C1F` (stereo partly shown) [Compound 85, cyclic (2′-fluoro-2′-deoxyinosine-(3′ −> 5′)-monophosphate-benzimidazole riboside-(3′ −> 5′)-monophosphate)], in series [1], the “log k′g” value was 1.211.
